Experimental data taken from patent publication US20220339122A1, “METHODS FOR THE TREATMENT OF DISEASES ASSOCIATED WITH DYSREGULATED ACTIVATION AND RECRUITMENT OF NEUTROPHILS” (Chang Gung University, priority 2021, published 2022).

How the values were obtained:
Assay type in all cases: biochemical
Details in all cases: 1-10 μM bletinib or 0.1-3 μM PP2; 125 μM ATP; concentration-dependent
Src = Src (Homo sapiens, UniProt P12931); test: Cell-free ADP-Glo kinase assay, Src
Procedure: (§1) The kinase activity of SFKs was assessed using an ADP-Glo kinase assay kit (Promega, Fitchburg, USA) according to manufacturer instructions. […] The ADP-Glo reagent was used to end the kinase reaction and remove the remnant ATP; next, the kinase, which converted ADP to ATP, detection reagent was added and incubated for 30 min. Luciferin/luciferase luminescence was determined on an Infinite 200 Pro (Tecan, Switzerland).

Fgr = Fgr (Homo sapiens, UniProt P09769); test: Cell-free ADP-Glo kinase assay, Fgr
Procedure: as §1

Lyn = Lyn (Homo sapiens, UniProt P07948); test: Cell-free ADP-Glo kinase assay, Lyn
Procedure: as §1

Lyn, sequence (P07948 whole entry): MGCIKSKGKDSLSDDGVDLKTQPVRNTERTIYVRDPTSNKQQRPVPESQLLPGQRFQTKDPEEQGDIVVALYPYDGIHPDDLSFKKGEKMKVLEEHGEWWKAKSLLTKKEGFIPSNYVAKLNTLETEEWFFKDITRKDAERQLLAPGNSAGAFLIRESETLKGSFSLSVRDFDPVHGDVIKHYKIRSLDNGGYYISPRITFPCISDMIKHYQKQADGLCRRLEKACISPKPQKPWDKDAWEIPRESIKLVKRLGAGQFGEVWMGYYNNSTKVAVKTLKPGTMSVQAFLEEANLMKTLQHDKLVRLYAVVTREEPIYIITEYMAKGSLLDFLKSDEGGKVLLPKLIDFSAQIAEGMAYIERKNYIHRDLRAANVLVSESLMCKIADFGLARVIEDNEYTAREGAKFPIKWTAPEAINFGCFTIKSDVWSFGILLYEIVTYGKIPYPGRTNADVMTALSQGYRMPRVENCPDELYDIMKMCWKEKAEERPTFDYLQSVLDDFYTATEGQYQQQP
Fgr, sequence (P09769 whole entry): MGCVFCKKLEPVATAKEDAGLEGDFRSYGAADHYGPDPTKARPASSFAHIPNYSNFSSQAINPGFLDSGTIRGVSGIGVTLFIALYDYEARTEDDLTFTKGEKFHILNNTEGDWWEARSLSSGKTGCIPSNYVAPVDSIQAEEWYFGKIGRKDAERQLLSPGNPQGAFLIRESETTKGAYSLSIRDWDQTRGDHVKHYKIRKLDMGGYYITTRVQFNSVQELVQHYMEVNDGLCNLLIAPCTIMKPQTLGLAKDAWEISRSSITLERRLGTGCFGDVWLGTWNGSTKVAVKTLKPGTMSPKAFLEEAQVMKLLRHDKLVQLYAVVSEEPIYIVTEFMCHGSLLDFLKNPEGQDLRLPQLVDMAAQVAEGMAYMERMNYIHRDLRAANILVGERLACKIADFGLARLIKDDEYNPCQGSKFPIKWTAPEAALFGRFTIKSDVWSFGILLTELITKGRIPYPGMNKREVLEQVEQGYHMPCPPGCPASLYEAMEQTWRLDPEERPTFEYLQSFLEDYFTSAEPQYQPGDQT
Src, sequence (P12931 whole entry): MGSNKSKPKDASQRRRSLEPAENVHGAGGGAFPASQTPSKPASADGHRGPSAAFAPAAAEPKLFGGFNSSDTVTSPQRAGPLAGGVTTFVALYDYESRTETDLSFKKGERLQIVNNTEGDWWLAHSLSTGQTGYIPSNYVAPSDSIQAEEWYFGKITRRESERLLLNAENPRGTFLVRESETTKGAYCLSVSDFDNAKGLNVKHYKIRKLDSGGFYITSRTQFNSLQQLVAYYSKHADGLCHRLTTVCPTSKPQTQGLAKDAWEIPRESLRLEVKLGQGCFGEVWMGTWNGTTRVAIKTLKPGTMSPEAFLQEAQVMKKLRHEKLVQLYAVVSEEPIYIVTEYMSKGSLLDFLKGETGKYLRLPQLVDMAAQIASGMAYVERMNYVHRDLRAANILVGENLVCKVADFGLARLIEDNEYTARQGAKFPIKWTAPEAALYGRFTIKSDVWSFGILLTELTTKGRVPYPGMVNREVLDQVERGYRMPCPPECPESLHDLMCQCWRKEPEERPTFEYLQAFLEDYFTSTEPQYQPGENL

CC(C)(C)n1nc(-c2ccc(Cl)cc2)c2c(N)ncnc21 [PP2, reference compound]
inhibited: kinase activity of Src (Src) | kinase activity of Fgr (Fgr) | kinase activity of Lyn (Lyn)
